# Measured values: patent US20130183239A1, “ISOTOPIC CARBON CHOLINE ANALOGS” (IMPERIAL COLLEGE, priority 2010, published 2013)
# Legend:
# [1] = Potassium permanganate oxidation study; assay type: physicochemical; settings: 1 hour post-treatment with potassium permanganate, room temperature, radio-HPLC
# From the text: Reagents and Conditions: i) KMnO4, Na2CO3, H2O, rt.
# [2] = mouse, in vivo
# Description: Metabolite analysis of tissues including liver, kidney and tumor by HPLC was also accomplished. […] Choline and its metabolites lack any UV chromophore to permit presentation of chromatograms of the cold unlabelled compound simultaneously with the radioactivity chromatograms.
# Liver, kidney, and tumor samples were obtained at 30 min. All samples were snap-frozen in liquid nitrogen. For analysis, samples were thawed and kept at 4° C. immediately before use. To ˜0.2 mL plasma was added ice-cold methanol (1.5 mL). The mixture was then centrifuged (3 min, 15,493×g, 4jC). The supernatant was evaporated to dryness using a rotary evaporator (Heidoloph Instruments) at a bath temperature of 40° C. The residue was suspended in mobile phase (1.1 mL), clarified (0.2 Am filter), and analyzed by HPLC. Liver, kidney, and tumor samples were homogenized in ice-cold methanol (1.5 mL) using an IKA Ultra-Turrax T-25 homogenizer and subsequently treated as per plasma samples (above). All samples were analyzed by radio-HPLC on an Agilent 1100 series HPLC system (Agilent Technologies) equipped with a γ-RAM Model 3 γ-detector (IN/US Systems) and Laura 3 software (Lablogic). The stationary phase comprised a Waters μBondapak C18 reverse-phase column (300×7.8 mm) (Waters, Milford, Mass., USA). Samples were analyzed using a mobile phase comprising solvent A (acetonitrile/water/ethanol/acetic acid/1.0 mol/L ammonium acetate/0.1 mol/L sodium phosphate; 800/127/68/2/3/10) and solvent B (acetonitrile/water/ethanol/acetic acid/1.0 mol/L ammonium acetate/0.1 mol/L sodiumphosphate; 400/400/68/44/88/10) with a gradient of 0% B for 6 min, then 0→100% B in 10 min, 100% B for 0.5 min, 100→0% B in 1.5 min then 0% B for 2 min, delivered at a flow rate of 3 mL/min.
# [3] = mouse, in vivo; remark: listed apart in the source
# Description: ^11C-choline, ^11C-D4-choline (˜18.5 MBq) and ^18F-D4-choline (˜3.7 MBq) were each injected via the tail vein of anaesthetized BALB/c nude mice. The mice were maintained under anesthesia and sacrificed by exsanguination via cardiac puncture at 2, 15, 30 or 60 min post radiotracer injection to obtain blood, plasma, heart, lung, liver, kidney and muscle. Tissue radioactivity was determined on a gamma counter (Cobra II Auto-Gamma counter, Packard Biosciences Co, Pangbourne, UK) and decay corrected. Data were expressed as percent injected dose per gram of tissue.
# Time course biodistribution was performed in non-tumor-bearing male nude mice with ^11C-choline, ^11C-D4-choline and ^18F-D4-choline tracers.
# [4] = mouse, in vivo; remark: listed apart in the source
# Description: (§1) Radiolabeled metabolites from plasma and tissues were quantified using a method adapted from Smith G, Zhao Y, Leyton J, et al. Radiosynthesis and pre-clinical evaluation of [(18)F]fluoro-[1,2-(2)H(4)]choline. Nucl Med Biol. 2011; 38:39-51. Briefly, tumor-bearing mice under terminal anaesthesia were administered a bolus i.v. injection of one of the following radiotracers: ^11C-choline, ^11C-D4-choline (˜18.5 MBq) or ^18F-D4-choline (˜3.7 MBq), and sacrificed by exsanguination via cardiac puncture at 2, 15, 30 or 60 min post radiotracer injection. For automated radiosynthesis methodology, see Example 22. Tumor, kidney and liver samples were immediately snap-frozen in liquid nitrogen. Aliquots of heparinized blood were rapidly centrifuged (14000 g, 5 min, 4° C.) to obtain plasma. Plasma samples were subsequently snap-frozen in liquid nitrogen and kept on dry ice prior to analysis.
# (§2) For analysis, samples were thawed and kept at 4° C. immediately before use. To ice cold plasma (200 μl) was added ice cold methanol (1.5 mL) and the resulting suspension centrifuged (14000 g; 4° C.; 3 min). The supernatant was then decanted and evaporated to dryness on a rotary evaporator (bath temperature, 40° C.), then resuspended in HPLC mobile phase (Solvent A: acetonitrile/water/ethanol/acetic acid/1.0 M ammonium acetate/0.1 M sodium phosphate [800/127/68/2/3/10]; 1.1 mL). Samples were filtered through a hydrophilic syringe filter (0.2 μm filter; Millex PTFE filter, Millipore, Mass., USA) and the sample (˜1 mL) then injected via a 1 mL sample loop onto the HPLC for analysis. Tissues were homogenized in ice-cold methanol (1.5 mL) using an Ultra-Turrax T-25 homogenizer (IKA Werke GmbH and Co. KG, Staufen, Germany) and subsequently treated as per plasma samples.
# (§3) Samples were analyzed on an Agilent 1100 series HPLC system (Agilent Technologies, Santa Clara, Calif., USA), configured as described above, using the method of Leyton J, Smith G, Zhao Y, et al. [18F]fluoromethyl-[1, 2-2H4]-choline: a novel radiotracer for imaging choline metabolism in tumors by positron emission tomography. Cancer Res. 2009; 69:7721-7728. A μBondapak C18 HPLC column (Waters, Milford, Mass., USA; […]), stationary phase and a mobile phase comprising of Solvent A (vide supra) and Solvent B (acetonitrile/water/ethanol/acetic acid/1.0 M ammonium acetate/0.1 M sodium phosphate (400/400/68/44/88/10)), delivered at a flow rate of 3 mL/min were used for analyte separation. The gradient was set as follows: 0% B for 5 min; 0% to 100% B in 10 min; 100% B for 0.5 min; 100% to 0% B in 2 min; 0% B for 2.5 min.
# A 2-tissue irreversible compartmental model was employed to fit the TACs, as has been previously established for ^11C-choline (Kenny L M, Contractor K B, Hinz R, et al. Reproducibility of [11C]choline-positron emission tomography and effect of trastuzumab. Clin Cancer Res. Aug. 15 2010; 16(16):4236-4245; and Sutinen E, Nurmi M, Roivainen A, et al. Kinetics of [(11)C]choline uptake in prostate cancer: a PET study. Eur J Nucl Med Mol. Imaging. March 2004; 31(3):317-324). An estimate of the whole blood TAC (wbTAC(t)) was derived from the PET image itself, as described above. […] Therefore it was fitted with a sum of 3 exponentials from the peak on and the fitted function was used as input function in the kinetic modeling (after metabolite correction, see below). […] The pf values were fitted to a sum of two exponentials with the constraint pf(t=0)=1 to obtain the function pf(t).
# [5] = tested on: HCT116 tumors; settings: mouse, in vivo
# Description: as §1, §2, §3
# ^11C-choline, ^11C-D4-choline and ^18F-D4-choline metabolism were measured in HCT116 tumors (FIG. 22).
smiles,measurement,setting,value
"[2H]C([2H])(O)C([2H])([2H])[N+](C)(C)C[18F] [[^18F]D4-FCH, [^18F]fluoromethyl-[1,2-^2H4]-choline]",parent compound still present,[1],~80%
same,kidney radioactivity as phosphocholine,[2],60.6±3.7%
same,kidney radioactivity in the form of betaine,[2],20.6±6.2%
same,unknown metabolite (possibly the aldehyde intermediate) in liver,[2],7.4±2.3%
same,unknown metabolite in kidney,[2],8.8±0.2%
same,form of radioactivity in tumors,[2]; iv,mainly in the form of phosphocholine
same,increase in kidney retention compared to 11C-choline,[3],3.3 fold
same,urinary excretion,[3],trend towards increased urinary excretion
same,liver radioactivity as betaine,[4],15.0±3.6%
same,liver radioactivity present as phosphocholine,[4],~80%
same,plasma radioactivity in the form of betaine,[4],43.7±12.4%
same,resistance to oxidation in the kidney,[4],more resistant to oxidation
same,tumor betaine radioactivity,[5],14.0±3.0%
same,tumor radioactivity corresponding to phosphocholine,[5],45.1±3.2%
same,higher un-metabolized parent tracer in tumor compared to 11C-D4-choline,[5]; 1 h,4.0 fold
same,higher un-metabolized parent tracer in tumor compared to 11C-choline,[5]; 1 h,2.7 fold
